Results on two compounds are retold here after PubChem BioAssay AID1919001 (Molecular Pharmacology Branch, DTP, NCI, 2023).

In this assay the test system is 699152-130-R-J1-PDC complex spheroid growth. Put plainly: Anticancer human tumor 699152-130-R-J1-PDC patient-derived pancreatic carcinoma cell line growth inhibition [AhR]. The following applies: for viability, T/C: stronger effect = lower value. The method, boiled down: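 Agents were dosed in half-log steps down from roughly clinical Cmax, or from 10 microM where Cmax was unknown, alone and with AhR antagonists. Read-out: percent test/control growth of tumor spheroids containing HUVEC and MSC stromal cells.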

“And” between values parts separate entries of the source, which are not always exact repeats. Equal entries are not always repeated. A value given as a limit tells only on which side of the number the result lay.
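Also: compound exposure lasted 7 days after spheroids had grown for 3 days.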

Take `COc1cc(Nc2ncc3c(n2)-c2ccc(Cl)cc2C(c2c(F)cccc2OC)=NC3)ccc1C(=O)O` + Cc1cncc(-c2nc(NCCc3c[nH]c4ccccc34)c3ncn(C(C)C)c3n2)c1: the IC50 – broadly, the concentration that inhibits the measured activity by half – is greater than 10 µM (curve of first compound, second compound 0.1 µM); greater than 10 µM (curve of first compound, second compound 0.316 µM); greater than 10 µM (curve of first compound, second compound 1 µM); greater than 10 µM (curve of first compound, second compound 3.16 µM); less than 0.0316 µM (curve of first compound, second compound 10 µM). The viability, T/C (as a rule, the result in the treated group divided by that in the control group, in per cent) by setting is: (second compound 0.1 µM, first compound 0.0316 µM) 80.3%; (second compound 0.1 µM, first compound 0.1 µM) 77.1%; (second compound 0.1 µM, first compound 0.316 µM) 73.4%; (second compound 0.1 µM, first compound 1 µM) 56.5%; (second compound 0.1 µM, first compound 3.16 µM) 56.1%; (second compound 0.1 µM, first compound 10 µM) 57.1%. Besides, the viability, T/C by setting is: (second compound 0.316 µM, first compound 0.0316 µM) 76.2%; (second compound 0.316 µM, first compound 0.1 µM) 81%; (second compound 0.316 µM, first compound 0.316 µM) 72.4%; (second compound 0.316 µM, first compound 1 µM) 59.8%; (second compound 0.316 µM, first compound 3.16 µM) 55.9%; (second compound 0.316 µM, first compound 10 µM) 54.8%. The viability, T/C was 95.5% (second compound 1 µM, first compound 0.0316 µM); 85.3% (second compound 1 µM, first compound 0.1 µM); 79.5% (second compound 1 µM, first compound 0.316 µM); 69% (second compound 1 µM, first compound 1 µM); 59.7% (second compound 1 µM, first compound 3.16 µM); 55.5% (second compound 1 µM, first compound 10 µM). Moreover, the viability, T/C was 92.5% (second compound 3.16 µM, first compound 0.0316 µM); 80.9% (second compound 3.16 µM, first compound 0.1 µM); 84.8% (second compound 3.16 µM, first compound 0.316 µM); 64.6% (second compound 3.16 µM, first compound 1 µM); 64.2% (second compound 3.16 µM, first compound 3.16 µM); 57.9% (second compound 3.16 µM, first compound 10 µM). For the same compound, the viability, T/C reads like this: (second compound 10 µM, first compound 0.0316 µM) 23.8%; (second compound 10 µM, first compound 0.1 µM) 21.3%; (second compound 10 µM, first compound 0.316 µM) 21.3%; (second compound 10 µM, first compound 1 µM) 16.9%; (second compound 10 µM, first compound 3.16 µM) 16.3%; (second compound 10 µM, first compound 10 µM) 22.3%.
Consider `COc1ccc([C@@H](O)c2cc(-c3ncnc4cc(N5CCOCC5)ccc34)c(F)cc2Cl)nn1`, for which the viability, T/C (compound 0.0316 µM) was 94.1% and 90.8% and 102%; the viability, T/C (compound 0.1 µM) was 93.3% and 98.1% and 115%; the viability, T/C (compound 0.316 µM) was 93.6% and 91.3% and 90.6%; the viability, T/C (compound 1 µM) was 79.1% and 78.4% and 71.7%; the viability, T/C (compound 3.16 µM) is 60.8% and 57.4% and 59.3%; the viability, T/C (compound 10 µM) is 33.6% and 28.5% and 30.6%. Moreover, the IC50 (curve of compound) was 4.91 µM and 4.15 µM and 3.98 µM.
